Reference: ChEMBL document CHEMBL1141683, “Substituted aryl pyrimidines as potent and soluble TRPV1 antagonists” (Bioorg Med Chem Lett, 2008)
In brackets after ≈: the same amount, converted by molar mass.

Legend:
in vivo [1] = conditions: Sprague-Dawley, rat, iv, 1 mg/kg
physchem [2] = conditions: 0.01N HCl
physchem [3] = conditions: phosphate buffered saline, pH 7
physchem [4] = conditions: simulated intestinal fluid
Rattus norvegicus [5] = species: Rattus norvegicus; conditions: in vivo, po, 5 mg/kg
Rattus norvegicus [6] = species: Rattus norvegicus; conditions: in vivo, po, 5 mg/kg; remark: listed apart in the source
in vivo [7] = conditions: Sprague-Dawley, rat, po, 5 mg/kg

CC(=O)Nc1nc2c(Oc3cc(-c4ccc(C(F)(F)F)cc4NC(=O)[C@@H]4CCCN4CC(C)C)ncn3)cccc2s1
clearance (in vivo [1]): > 66.7 mL/min/kg
solubility (physchem [2]): > 200 µg/mL
solubility (physchem [3]): 6 µg/mL (≈ 10 µM)
solubility (physchem [4]): 39 µg/mL (≈ 65.1 µM)

CC(=O)Nc1nc2c(Oc3cc(-c4ccc(C(F)(F)F)cc4NC(=O)[C@H]4CCCN4CC(C)C)ncn3)cccc2s1
clearance (in vivo [1]): > 66.7 mL/min/kg
solubility (physchem [2]): > 200 µg/mL
solubility (physchem [3]): 1 µg/mL (≈ 1.67 µM)
solubility (physchem [4]): 39 µg/mL (≈ 65.1 µM)

CC(=O)Nc1nc2c(Oc3cc(-c4ccc(C(F)(F)F)cc4NC(=O)CCN(C)C)ncn3)cccc2s1
solubility (physchem [2]): 81 µg/mL (≈ 149 µM)
solubility (physchem [3]): 3.9 µg/mL (≈ 7.16 µM)
solubility (physchem [4]): 30 µg/mL (≈ 55.1 µM)

CC(=O)Nc1nc2c(Oc3cc(-c4ccc(C(F)(F)F)cc4NC(=O)[C@@H]4CCC(C)N4)ncn3)cccc2s1 (stereo not given in full)
clearance (in vivo [1]): 10.3 mL/min/kg
solubility (physchem [2]): 120 µg/mL (≈ 216 µM)
solubility (physchem [3]): 7.4 µg/mL (≈ 13.3 µM)
solubility (physchem [4]): 59 µg/mL (≈ 106 µM)

CC(=O)Nc1nc2c(Oc3cc(-c4ccc(C(F)(F)F)cc4)ncn3)cccc2s1 [AMG-517]
Vdss (Rattus norvegicus [5]): 1.6 L/kg
AUC (Rattus norvegicus [6]): 5400 ng·h/mL
half-life (in vivo [7]): 6.3 h
solubility (physchem [2]): < 1 µg/mL
solubility (physchem [3]): < 1 µg/mL
